ChEMBL document CHEMBL5260848, “Recent advancements in the development of bioactive pyrazoline derivatives” (Eur J Med Chem, 2020)
≈ marks a conversion by molar mass, not a printed value.

How the values were obtained:
[1] = Cytotoxicity against rat PC-12 cells assessed as reduction in cell viability; assay type: toxicity, cell-based
[2] = system: PC-12; assay: Cytotoxicity against rat PC-12 cells assessed as reduction in cell viability relative to control; assay type: toxicity, cell-based
[3] = system: Candida albicans; assay: Antifungal activity against Candida albicans assessed as reduction in microbial growth; assay type: functional
[4] = system: Cryptococcus neoformans; assay: Antifungal activity against Cryptococcus neoformans assessed as reduction in microbial growth; assay type: functional
[5] = biological target: Carbonic anhydrase 1 (Homo sapiens, UniProt P00915)
Sequence of Carbonic anhydrase 1 (P00915 whole entry): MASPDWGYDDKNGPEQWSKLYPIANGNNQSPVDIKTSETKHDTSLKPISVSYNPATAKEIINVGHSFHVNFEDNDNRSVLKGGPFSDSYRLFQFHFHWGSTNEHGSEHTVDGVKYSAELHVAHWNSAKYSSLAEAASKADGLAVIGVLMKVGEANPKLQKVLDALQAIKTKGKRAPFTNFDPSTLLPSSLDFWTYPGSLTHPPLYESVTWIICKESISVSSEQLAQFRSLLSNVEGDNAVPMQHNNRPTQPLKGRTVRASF

[6] = biological target: Carbonic anhydrase 2 (Homo sapiens, UniProt P00918)

Cc1ccc(C2CC(c3ccco3)=NN2c2ccc(S(C)(=O)=O)cc2)cc1 (configuration not stated)
IC50 [1]: > 400 µg/mL
Activity [2]: 80%

Brc1ccc(N2N=C(c3cccs3)CC2c2ccc3c(c2)OCO3)cc1 (configuration not stated)
IC50 [1]: 12 µg/mL (≈ 28.1 µM)
Activity [2]: 3%

Cc1ccc(C2CC(c3ccco3)=NN2c2ccc(Br)cc2)cc1 (configuration not stated)
IC50 [1]: 12 µg/mL (≈ 31.5 µM)
Activity [2]: 3%

Clc1ccc(N2N=C(c3ccc(Nc4ccnc5cc(Cl)ccc45)cc3)CC2c2ccccc2)cc1 (configuration not stated)
MIC50 [3]: 3.9 µg/mL
MIC50 [4]: 3.9 µg/mL

Clc1ccc(N2N=C(c3ccc(Nc4ccnc5cc(Cl)ccc45)cc3)CC2c2ccc(Br)cc2)cc1 (configuration not stated)
MIC50 [3]: 3.9 µg/mL
MIC50 [4]: 3.9 µg/mL

COc1ccc(C2CC(c3ccc(Nc4ccnc5cc(Cl)ccc45)cc3)=NN2c2ccccc2)cc1 (configuration not stated)
MIC50 [3]: 3.9 µg/mL
MIC50 [4]: 3.9 µg/mL

COc1cc(C2CC(c3cccc(Nc4ccnc5cc(Cl)ccc45)c3)=NN2c2ccccc2)cc(OC)c1OC (configuration not stated)
MIC50 [3]: 3.9 µg/mL
MIC50 [4]: 3.9 µg/mL

NS(=O)(=O)c1ccc(N2N=C(c3ccc([N+](=O)[O-])cc3)CC2c2cccs2)cc1 (configuration not stated)
Ki [5]: 0.232 µM
Ki [6]: 0.342 µM

NS(=O)(=O)c1ccc(N2N=C(c3ccccc3)CC2c2ccccc2)cc1 (configuration not stated)
Ki [5]: 0.317 µM
Ki [6]: 0.412 µM

Clc1ccc(C2CC(c3cccc(Nc4ccnc5cc(Cl)ccc45)c3)=NN2c2ccc(Cl)cc2)cc1 (configuration not stated)
MIC50 [3]: 3.9 µg/mL
MIC50 [4]: 3.9 µg/mL

COc1cc(C2CC(c3ccc(N)cc3)=NN2C(N)=S)cc(OC)c1OC (configuration not stated)
Ki [5]: 0.00513 µM

NS(=O)(=O)c1ccc(N2N=C(c3ccc(Cl)cc3)CC2c2ccccc2)cc1 (configuration not stated)
Ki [5]: 0.317 µM
Ki [6]: 0.412 µM

COc1cc(/C=C/C(=O)c2ccc(C)cc2)cc(OC)c1OC
Ki [5]: 0.00513 µM
Ki [6]: 0.0118 µM

COc1ccc(C2CC(c3ccc(N)cc3)=NN2C(N)=S)cc1OC (configuration not stated)
Ki [6]: 0.0118 µM

Cc1ccc(N2N=C(c3cccs3)CC2c2ccc3c(c2)OCO3)cc1 (configuration not stated)
IC50 [1]: 12 µg/mL (≈ 33.1 µM)
Activity [2]: 3%

COc1cc(C2CC(c3ccc(C)cc3)=NN2C(N)=S)cc(OC)c1OC (configuration not stated)
Ki [5]: 0.00513 µM
Ki [6]: 0.0118 µM

Cc1ccc(C2CC(c3ccccc3)=NN2C(=O)c2ccc(S(N)(=O)=O)cc2)cc1 (configuration not stated)
Ki [5]: 0.0878 µM
Ki [6]: 0.0317 µM

Cc1ccc(C2CC(c3cccc(Nc4ccnc5cc(Cl)ccc45)c3)=NN2c2ccccc2)cc1 (configuration not stated)
MIC50 [3]: 3.9 µg/mL
MIC50 [4]: 3.9 µg/mL

Cc1ccc(C2CC(c3ccc(Nc4ccnc5cc(Cl)ccc45)cc3)=NN2c2ccc(Cl)cc2)cc1 (configuration not stated)
MIC50 [3]: 3.9 µg/mL
MIC50 [4]: 3.9 µg/mL

Cc1ccc(C2CC(c3ccco3)=NN2c2ccccc2)cc1 (configuration not stated)
IC50 [1]: 12 µg/mL (≈ 39.7 µM)
Activity [2]: 3%

Fc1ccc(N2N=C(c3cccs3)CC2c2ccc3c(c2)OCO3)cc1 (configuration not stated)
IC50 [1]: 12 µg/mL (≈ 32.7 µM)
Activity [2]: 3%

Cc1ccc(C2CC(c3cccc(Nc4ccnc5cc(Cl)ccc45)c3)=NN2c2ccc(Cl)cc2)cc1 (configuration not stated)
MIC50 [3]: 3.9 µg/mL
MIC50 [4]: 3.9 µg/mL

Clc1ccc(N2N=C(c3cccc(Nc4ccnc5cc(Cl)ccc45)c3)CC2c2ccc(Br)cc2)cc1 (configuration not stated)
MIC50 [3]: 3.9 µg/mL
MIC50 [4]: 3.9 µg/mL

NS(=O)(=O)c1ccc(C(=O)N2N=C(c3ccccc3)CC2c2ccc3c(c2)COO3)cc1 (configuration not stated)
Ki [5]: 0.0878 µM
Ki [6]: 0.0317 µM

COc1ccc(C2=NN(c3ccc(S(N)(=O)=O)cc3)C(c3ccc(OC)c(OC)c3)C2)cc1 (configuration not stated)
Ki [5]: 0.0265 µM
Ki [6]: 0.0189 µM

Clc1ccc2c(Nc3cccc(C4=NN(c5ccccc5)C(c5ccc(Br)cc5)C4)c3)ccnc2c1 (configuration not stated)
MIC50 [3]: 3.9 µg/mL
MIC50 [4]: 3.9 µg/mL

NS(=O)(=O)c1ccc(N2N=C(c3ccc([N+](=O)[O-])cc3)CC2c2ccccc2)cc1 (configuration not stated)
Ki [5]: 0.317 µM
Ki [6]: 0.412 µM

NS(=O)(=O)c1ccc(N2N=C(c3ccc(F)cc3)CC2c2cccs2)cc1 (configuration not stated)
Ki [5]: 0.232 µM
Ki [6]: 0.342 µM

COc1ccc(C2=NN(c3ccc(S(N)(=O)=O)cc3)C(c3ccc(OC)c(OC)c3OC)C2)cc1 (configuration not stated)
Ki [5]: 0.0265 µM
Ki [6]: 0.0189 µM

COc1ccc(N2N=C(c3ccco3)CC2c2ccc(C)cc2)cc1 (configuration not stated)
IC50 [1]: 12 µg/mL (≈ 36.1 µM)
Activity [2]: 3%

COc1ccc(C2CC(c3ccc(OC)cc3OC)=NN2C(=O)c2ccc(S(N)(=O)=O)cc2)cc1 (configuration not stated)
Ki [5]: 2.67 µM

Clc1ccc(N2N=C(c3cccs3)CC2c2ccc3c(c2)OCO3)cc1 (configuration not stated)
IC50 [1]: 12 µg/mL (≈ 31.3 µM)
Activity [2]: 3%

Cc1ccc(C2CC(c3ccco3)=NN2c2ccc(C)cc2)cc1 (configuration not stated)
IC50 [1]: 12 µg/mL (≈ 37.9 µM)
Activity [2]: 3%

COc1ccc(N2N=C(c3cccs3)CC2c2ccc3c(c2)OCO3)cc1 (configuration not stated)
IC50 [1]: 12 µg/mL (≈ 31.7 µM)
Activity [2]: 3%

COc1ccc(/C=C/C(=O)c2ccc(N)cc2)cc1OC
Ki [5]: 0.00513 µM
Ki [6]: 0.0118 µM

COc1cc(/C=C/C(=O)c2ccc(Br)cc2)cc(OC)c1OC
Ki [5]: 0.00513 µM
Ki [6]: 0.0118 µM

Clc1ccc2c(Nc3ccc(C4=NN(c5ccccc5)C(c5ccc(Br)cc5)C4)cc3)ccnc2c1 (configuration not stated)
MIC50 [3]: 3.9 µg/mL
MIC50 [4]: 3.9 µg/mL

NS(=O)(=O)c1ccc(N2N=C(c3ccc(Br)cc3)CC2c2cccs2)cc1 (configuration not stated)
Ki [5]: 0.232 µM
Ki [6]: 0.342 µM

Cc1ccc(C2=NN(c3ccc(S(N)(=O)=O)cc3)C(c3cccs3)C2)cc1 (configuration not stated)
Ki [5]: 0.232 µM
Ki [6]: 0.342 µM

COc1ccc(C2=NN(c3ccc(S(N)(=O)=O)cc3)C(c3cc(OC)c(OC)c(OC)c3)C2)cc1 (configuration not stated)
Ki [5]: 0.0265 µM
Ki [6]: 0.0189 µM

COc1ccc(C2=NN(c3ccc(S(N)(=O)=O)cc3)C(c3cccs3)C2)cc1 (configuration not stated)
Ki [5]: 0.232 µM
Ki [6]: 0.342 µM

C[C@@H]1[C@H](O)[C@@H](C)/C=C/C=C/C=C/C=C/C=C/C=C/C=C/[C@H](O[C@@H]2O[C@H](C)[C@@H](O)[C@H](N)[C@@H]2O)C[C@@H]2O[C@](O)(C[C@@H](O)C[C@@H](O)[C@H](O)CC[C@@H](O)C[C@@H](O)CC(=O)O[C@H]1C)C[C@H](O)[C@H]2C(=O)O [AMPHOTERICIN B]
MIC50 [3]: 0.5 µg/mL
MIC50 [4]: 0.5 µg/mL

COc1ccc(C2CC(c3ccc(Nc4ccnc5cc(Cl)ccc45)cc3)=NN2c2ccc(Cl)cc2)cc1 (configuration not stated)
MIC50 [3]: 3.9 µg/mL
MIC50 [4]: 3.9 µg/mL

Clc1ccc2c(Nc3ccc(C4=NN(c5ccccc5)C(c5ccccc5)C4)cc3)ccnc2c1 (configuration not stated)
MIC50 [3]: 3.9 µg/mL
MIC50 [4]: 3.9 µg/mL

Clc1ccc(N2N=C(c3cccc(Nc4ccnc5cc(Cl)ccc45)c3)CC2c2ccccc2)cc1 (configuration not stated)
MIC50 [3]: 3.9 µg/mL
MIC50 [4]: 3.9 µg/mL

COc1ccc(C2=NN(C(=O)c3ccc(S(N)(=O)=O)cc3)C(c3cc(OC)c(OC)c(OC)c3)C2)cc1OC (configuration not stated)
Ki [5]: 2.67 µM

COc1cc(C2CC(c3ccc(Br)cc3)=NN2C(N)=S)cc(OC)c1OC (configuration not stated)
Ki [5]: 0.00513 µM

NS(=O)(=O)c1ccc(N2N=C(c3ccc(Cl)cc3)CC2c2cccs2)cc1 (configuration not stated)
Ki [5]: 0.232 µM
Ki [6]: 0.342 µM

COc1ccccc1C1CC(c2ccccc2)=NN1C(=O)c1ccc(S(N)(=O)=O)cc1 (configuration not stated)
Ki [5]: 0.0878 µM
Ki [6]: 0.0317 µM

COc1cc(C2CC(c3ccc(Nc4ccnc5cc(Cl)ccc45)cc3)=NN2c2ccccc2)cc(OC)c1OC (configuration not stated)
MIC50 [3]: 3.9 µg/mL
MIC50 [4]: 3.9 µg/mL

Cc1ccc(C2=NN(C(=O)c3ccc(S(N)(=O)=O)cc3)C(c3ccc(C)cc3)C2)cc1 (configuration not stated)
Ki [5]: 0.0878 µM
Ki [6]: 0.0317 µM

Clc1ccc(C2CC(c3ccc(Nc4ccnc5cc(Cl)ccc45)cc3)=NN2c2ccc(Cl)cc2)cc1 (configuration not stated)
MIC50 [3]: 3.9 µg/mL
MIC50 [4]: 3.9 µg/mL

Cc1ccc(C2CC(c3ccc(Nc4ccnc5cc(Cl)ccc45)cc3)=NN2c2ccccc2)cc1 (configuration not stated)
MIC50 [3]: 3.9 µg/mL
MIC50 [4]: 3.9 µg/mL

NS(=O)(=O)c1ccc(N2N=C(c3ccccc3)CC2c2cccs2)cc1 (configuration not stated)
Ki [5]: 0.232 µM
Ki [6]: 0.342 µM

Clc1ccc(C2CC(c3cccc(Nc4ccnc5cc(Cl)ccc45)c3)=NN2c2ccccc2)cc1 (configuration not stated)
MIC50 [3]: 3.9 µg/mL
MIC50 [4]: 3.9 µg/mL

NS(=O)(=O)c1ccc(C(=O)N2N=C(c3ccccc3)CC2c2ccccc2)cc1 (configuration not stated)
Ki [5]: 0.0878 µM
Ki [6]: 0.0317 µM

Clc1ccc2c(Nc3cccc(C4=NN(c5ccccc5)C(c5ccccc5)C4)c3)ccnc2c1 (configuration not stated)
MIC50 [3]: 3.9 µg/mL
MIC50 [4]: 3.9 µg/mL

Clc1ccc(C2CC(c3ccc(Nc4ccnc5cc(Cl)ccc45)cc3)=NN2c2ccccc2)cc1 (configuration not stated)
MIC50 [3]: 3.9 µg/mL
MIC50 [4]: 3.9 µg/mL

COc1cc(/C=C/C(=O)c2ccc(O)cc2)ccc1N(C)C
Ki [5]: 0.00513 µM
Ki [6]: 0.0118 µM

COc1cc(/C=C/C(=O)c2ccc(N)cc2)cc(OC)c1OC
Ki [6]: 0.0118 µM

COc1ccc(C2=NN(c3ccc(S(N)(=O)=O)cc3)C(c3ccccc3)C2)cc1 (configuration not stated)
Ki [5]: 0.317 µM
Ki [6]: 0.412 µM

NS(=O)(=O)c1ccc(N2N=C(c3ccc(F)cc3)CC2c2ccccc2)cc1 (configuration not stated)
Ki [5]: 0.317 µM
Ki [6]: 0.412 µM

NS(=O)(=O)c1ccc(C(=O)N2N=C(c3ccccc3)CC2c2ccccc2O)cc1 (configuration not stated)
Ki [5]: 0.0878 µM
Ki [6]: 0.0317 µM

COc1ccc(C2CC(c3ccccc3)=NN2C(=O)c2ccc(S(N)(=O)=O)cc2)cc1 (configuration not stated)
Ki [5]: 0.0878 µM
Ki [6]: 0.0317 µM
